Data as given in paper PMC7559125 (Pathogens, 2020).
Where two headings read alike, the source gives them in different places.

Key:
[1] = tested on: neuraminidase of the dual H275Y mutant viruses
[2] = target: neuraminidase of A/Hiroshima/13/2016 (H275Y/G147R) (Influenza A virus, UniProt A0A0X9QTS2, G147R/H275Y)
A/Osaka/8/2014 (H275Y) [3] = tested on: A/Osaka/8/2014 (H275Y)
[4] = tested on: A/Hiroshima/57/2014 (H275Y/I223R)
[5] = tested on: A/Yokohama/94/2016 (H275Y)
[6] = tested on: All viruses tested (dual H275Y, single H275Y, wild-type)
A/Aichi/83/2016 (H275Y) [7] = tested on: A/Aichi/83/2016 (H275Y)
[8] = tested on: A/Ibaraki/54/2016 (H275Y/I223K)
[9] = tested on: A/Hiroshima/13/2016 (H275Y/G147R)
[10] = tested on: A/Ibaraki/54/2016 (H275Y/I223K); remark: listed apart in the source
[11] = tested on: All viruses tested (dual H275Y, single H275Y, wild-type); remark: listed apart in the source
A/Aichi/83/2016 (H275Y) [12] = tested on: A/Aichi/83/2016 (H275Y); remark: listed apart in the source
[13] = tested on: A/Hiroshima/57/2014 (H275Y/I223R); remark: listed apart in the source
[14] = tested on: A/Yokohama/94/2016 (H275Y); remark: listed apart in the source
A/Osaka/8/2014 (H275Y) [15] = tested on: A/Osaka/8/2014 (H275Y); remark: listed apart in the source
[16] = tested on: A/Hiroshima/13/2016 (H275Y/G147R); remark: listed apart in the source
[17] = target: neuraminidase of A/Yokohama/94/2016 (H275Y) (Influenza A virus, UniProt A0A0X9QTS2, H275Y)
[18] = target: neuraminidase of A/Hiroshima/57/2014 (H275Y/I223R) (Influenza A virus, UniProt W8DXJ8, H275Y/I223R)
[19] = target: neuraminidase of A/Ibaraki/54/2016 (H275Y/I223K) (Influenza A virus, UniProt A0A0X9QTS2, H275Y/I223K)
[20] = target: neuraminidase of A/Osaka/8/2014 (H275Y) (Influenza A virus, UniProt W8DXJ8, H275Y)
[21] = target: neuraminidase of A/Aichi/83/2016 (H275Y) (Influenza A virus, UniProt A0A0X9QTS2, H275Y)

Compound: [H]/N=C(\N)N[C@H]1C=C(C(=O)O)O[C@@H]([C@H](OC)[C@H](O)CO)[C@@H]1NC(C)=O [Laninamivir]
- Susceptibility of the H275Y/I223R and H275Y/I223K mutant viruses (in words) [1]: reduced susceptibility
- Susceptibility of the H275Y/G147R mutant virus (in words) [2]: retained susceptibility

Compound: O=C1c2c(O)c(=O)ccn2N([C@@H]2c3ccccc3SCc3c2ccc(F)c3F)[C@@H]2COCCN12 [Baloxavir, Baloxavir acid]
- Fold-change in IC50 compared with the wild-type virus (A/Osaka/8/2014 (H275Y) [3]): 5.10 (1.3) fold
- IC50 (A/Osaka/8/2014 (H275Y) [3]): 5.1 nM
- Fold-change in IC50 compared with the wild-type virus [4]: 8.34 (2.1) fold
- IC50 [4]: 8.34 nM
- Fold-change in IC50 compared with the wild-type virus [5]: 3.49 (0.6) fold
- IC50 [5]: 3.49 nM
- Susceptibility of all viruses tested (in words) [6]: susceptible
- Fold-change in IC50 compared with the wild-type virus (A/Aichi/83/2016 (H275Y) [7]): 10.18 (0.9) fold
- IC50 (A/Aichi/83/2016 (H275Y) [7]): 10.2 nM
- Fold-change in IC50 compared with the wild-type virus [8]: 7.24 (1.2) fold
- IC50 [8]: 7.24 nM
- Fold-change in IC50 compared with the wild-type virus [9]: 10.59 (1.0) fold
- IC50 [9]: 10.6 nM

Compound: NC(=O)c1nc(F)c[nH]c1=O [Favipiravir, favipiravir]
- EC50 [10]: 10200 nM
- Fold-change in EC50 compared with the wild-type virus [10]: 10.20 (1.0) fold
- Susceptibility of all viruses tested (in words) [11]: susceptible
- EC50 (A/Aichi/83/2016 (H275Y) [12]): 14800 nM
- Fold-change in EC50 compared with the wild-type virus (A/Aichi/83/2016 (H275Y) [12]): 14.83 (1.7) fold
- EC50 [13]: 7990 nM
- Fold-change in EC50 compared with the wild-type virus [13]: 7.99 (1.2) fold
- EC50 [14]: 21400 nM
- Fold-change in EC50 compared with the wild-type virus [14]: 21.40 (2.1) fold
- EC50 (A/Osaka/8/2014 (H275Y) [15]): 4760 nM
- Fold-change in EC50 compared with the wild-type virus (A/Osaka/8/2014 (H275Y) [15]): 4.76 (0.7) fold
- EC50 [16]: 15100 nM
- Fold-change in EC50 compared with the wild-type virus [16]: 15.13 (1.7) fold

Compound: CCC(CC)[C@H](NC(C)=O)[C@@H]1[C@H](O)[C@@H](C(=O)O)C[C@H]1N=C(N)N.O.O.O [Peramivir, peramivir trihydrate]
- Susceptibility of the H275Y/I223R, H275Y/I223K and H275Y/G147R mutant viruses (in words) [1]: enhanced cross-resistance
- Fold-change in IC50 compared with the wild-type virus [17]: 20.88 (300) fold
- IC50 [17]: 20.9 nM
- Fold-change in IC50 compared with the wild-type virus [18]: 944.20 (94,000) fold
- IC50 [18]: 944 nM
- Fold-change in IC50 compared with the wild-type virus [19]: 501.62 (7,200) fold
- IC50 [19]: 502 nM
- Fold-change in IC50 compared with the wild-type virus [20]: 28.25 (2,800) fold
- IC50 [20]: 28.2 nM
- Fold-change in IC50 compared with the wild-type virus [21]: 31.93 (400) fold
- IC50 [21]: 31.9 nM
- Fold-change in IC50 compared with the wild-type virus [2]: 114.14 (1,400) fold
- IC50 [2]: 114 nM

Compound: CC(=O)N[C@H]1[C@H]([C@H](O)[C@H](O)CO)OC(C(=O)O)=C[C@@H]1N=C(N)N [Zanamivir, zanamivir hydrate]
- Susceptibility of the H275Y/I223R, H275Y/I223K and H275Y/G147R mutant viruses (in words) [1]: reduced susceptibility
